We go through 12 compounds from paper PMC12680612, “Metabolic engineering and late-stage functionalization expand the chemical space of the antimalarial premarineosin A” (Communications Chemistry, 2025).

Where two headings read alike, the source gives them in different places. Where only a bound is given, the exact number is not on record here.

A short description of data set [1]: CellTiter-Glo cell viability assay (cytotoxicity), MOLT4. It counts as cell-based. Particulars: human, MOLT4, 72 h treatment, read-out: In vitro cytotoxicity EC50 ± SD MOLT4. The method, then:
(§1) Cells were obtained from the following sources: HEK293 (ATCC, cat # CRL-1573), MOLT-4 (ATCC, cat # CRL-1582). Cell lines were routinely tested for Mycoplasma contamination with the MycoAlert PLUS Mycoplasma Detection Kit (Lonza Bioscience, cat # LT07) according to manufacturer protocol. Cell number and cell viability were measured using the Countess Automated Cell Counter (Invitrogen) using Trypan blue stain (Invitrogen, cat # T10282). Human embryonic kidney HEK293 cells were maintained in DMEM with high glucose and GlutaMAX (Gibco, cat # 10566016) supplemented with 10% HyClone Characterized Fetal Bovine Serum (Cytiva, cat # SH30071.03), and 100 µ mL^−1 Penicillin-Streptomycin (Gibco, cat # 15140122). Human T lymphoblast MOLT-4 cells were maintained in RPMI 1640 Medium (Gibco, cat # 11875093) supplemented with 10% HyClone Characterized Fetal Bovine Serum (Cytiva, cat # SH30071.03), 100 µ mL^−1 Penicillin-Streptomycin (Gibco, cat # 15140122), and 10 mM HEPES (Gibco, 15630080). Cells were cultured in incubators maintained at 37 °C with 5% CO2 and 95% relative humidity.
(§2) The CTG assay (Promega, cat # G7572) was used to quantify cellular ATP according to manufacturer protocols. The Multidrop Combi liquid dispenser (ThermoFisher) was used to dispense 4 µL of cells into white 1536-well microplates (Corning, cat # 7464) at a density of 1500 cells/well. Plated cells were incubated overnight. (−)-Premarineosin A (3) and derivatives were transferred into respective wells of each plate at 25 nL/well with the mosquito (SPT Labtech) in 16-pt, 1:3 titrations for a final concentration of 125 µM–8.71 pM for compounds with a high concentration of 20 mM, or 62.5 µM–4.36 pM for compounds with a high concentration of 10 mM. Controls were transferred into respective wells of each plate at 25 nL/well with the mosquito with a 16-pt, 1:2 titration of Digitonin for a final concentration of 125 µM–3.81 nM. The final concentration of DMSO was 0.58%. Cells were incubated for either 24, 48, and 72 h, after which point 3 µL/well of CTG was transferred to each plate with the BioRaptr 2.0 FRD (LetsGoRobotics). Plates were incubated for 10 min in the dark at ambient temperature for 10 min. Luminescence was measured using a ViewLux 1430Ultra HTS (PerkinElmer) with the following optical settings: exposure = 1 s, gain = high, speed = slow, binning = 2X. Dimethyl sulfoxide (“DMSO”; AMRESCO, cat # RGE-3070) was used as a vehicle control. Digitonin (Sigma-Aldrich, cat # D141) was prepared as a 20 mM stock solution in DMSO and stored at −30 °C for use as a cytotoxicity control. (−)-Premarineosin A (3) and derivatives were prepared at either 10 mM or 20 mM stock solutions in DMSO. Data were normalized to 125 µM Digitonin as −100% inhibition in a row-wise manner across the plate. Normalization was performed in Excel (Microsoft) and Concentration Response Curves (CRCs) were plotted in GraphPad Prism (GraphPad Software, Inc.) with error bars representing the standard deviation of four replicate wells (Supplementary Fig. 9).
For orientation: ATP-based viability assays read luminescence as a measure of living cells.

The test system of data set [2] is Plasmodium falciparum 3D7 (chloroquine-sensitive). Nature of the data set: In vitro antimalarial growth inhibition assay (SYBR green), 3D7. The following applies: for EC50: Plasmodium falciparum. It counts as cell-based. Here is the method:
The antimalarial growth inhibition assay was performed as described previously. […] Tested compounds were threefold diluted in triplicate with concentrations ranging from 20 – 0.001 µM/10 – 0.0005 µM. The parasites were incubated with the drug at 37 °C under mixed gas (5% O2, 5% CO2, and 90% N2) conditions for 48 h. DNA was released from the cultured parasite and stained with SYBR green dye. The plate was placed in the dark with gentle agitation for 1 h, and signals were read in a FLUOstar OPTIMA reader (BMG Labtech, Germany). Data from the microplate reader were analyzed as described previously[68] and plotted using Prism 9.0 software (GraphPad Software, Inc., San Diego, CA). Each in vitro experiment was performed in triplicate wells and repeated twice. Response Curves (CRCs) were plotted in GraphPad Prism (GraphPad Software, Inc.) with error bars representing the standard deviation of three replicate wells (Supplementary Fig. 10).

Data set [3] relates to Plasmodium falciparum Dd2 (chloroquine-resistant). Nature of the data set: In vitro antimalarial growth inhibition assay (SYBR green), Dd2. The data set is classed as cell-based. Particulars: for EC50: Plasmodium falciparum, read-out: In vitro activity EC50 ± SD P. falciparum Dd2; for Fold more potent than chloroquine, Dd2: Dd2, versus chloroquine. The method, then:
The antimalarial growth inhibition assay was performed as described previously. Briefly, the Plasmodium falciparum Dd2 and 3D7 parasites were diluted to 0.75% parasitemia with 2% hematocrit, and 50 μL diluted parasites were added to each well in a 96-well plate containing 50 μL of properly diluted drugs. Tested compounds were threefold diluted in triplicate with concentrations ranging from 20 – 0.001 µM/10 – 0.0005 µM. The parasites were incubated with the drug at 37 °C under mixed gas (5% O2, 5% CO2, and 90% N2) conditions for 48 h. DNA was released from the cultured parasite and stained with SYBR green dye. The plate was placed in the dark with gentle agitation for 1 h, and signals were read in a FLUOstar OPTIMA reader (BMG Labtech, Germany). Data from the microplate reader were analyzed as described previously[68] and plotted using Prism 9.0 software (GraphPad Software, Inc., San Diego, CA). Each in vitro experiment was performed in triplicate wells and repeated twice. Response Curves (CRCs) were plotted in GraphPad Prism (GraphPad Software, Inc.) with error bars representing the standard deviation of three replicate wells (Supplementary Fig. 10).

The nature of data set [4]: CellTiter-Glo cell viability assay (cytotoxicity), HEK293. The data set is classed as cell-based. The following applies: human, HEK293, 72 h treatment, read-out: In vitro cytotoxicity EC50 ± SD HEK293. The method, then:
as §1, §2

A further data set has as its system Plasmodium. On the set-up: method as in PMID 24575817, PMID 19007176. The following applies: cited from earlier work.
[5] abbreviates: 3D7, 48 h, read-out: In vitro activity EC50 ± SD P. falciparum 3D7.
Setting [6] is: MOLT-4 T-cell leukemia (T lymphoblast) cells.
Where [7] appears, read: 3D7 chloroquine-sensitive, 48 h treatment.
Setting [8] is: 3D7 chloroquine-sensitive, 48 h treatment, read-out: In vitro activity EC50 ± SD P. falciparum 3D7.
The mark [9] stands for this setting: Dd2 chloroquine-resistant, 48 h treatment.

Consider `COC1=CC(c2ccc(Br)[nH]2)=N[C@@]12O[C@H](C)C[C@H]1CCCCCCCc3ccc([nH]3)[C@@H]12` [compound 11, 1-bromo premarineosin A], for which the EC50 at 72 h in data set [1] is 1330 ± 691 nM; in data set [4], 19200 ± 1730 nM. Besides, the EC50 was found to be 473 ± 113 nM in data set [2] (setting [5]) and 259 ± 24 nM in data set [3] (DD2, 48 h).

With `COC1=CC(c2ccc[nH]2)=N[C@@]12O[C@H](C)C[C@H]1CCCCCCCc3[nH]c(cc3C(C)(O)C(F)(F)F)[C@@H]12` (stereo partly drawn) [compound 7, 12-trifluoropropanol premarineosin A], the EC50 at 72 h in data set [1] (setting [6]) was determined as 1490 ± 388 nM; in data set [4] (HEK293 embryonic kidney cells), 4210 ± 481 nM. Also, the “In vitro activity EC50 ± SD P. falciparum 3D7” value in data set [2] (setting [7]) is recorded as “sub-micromolar”. Moreover, the EC50 in data set [2] (setting [8]) worked out at 203 ± 10 nM; in data set [3] (setting [9]), 87 ± 15 nM. The “In vitro activity EC50 ± SD P. falciparum Dd2” value in data set [3] (setting [9]) was “sub-micromolar”.

Regarding `COC1=CC(c2ccc[nH]2)=N[C@@]12O[C@H](C)C[C@H]1CCCCCCCc3[nH]c(cc3Br)[C@@H]12` [compound 12, 12-bromo premarineosin A], the EC50 at 72 h in data set [1] is 480 ± 84 nM; in data set [4], 1630 ± 184 nM. For the same compound, the EC50 in data set [2] (setting [5]) was 2 nM; in data set [2] (3D7, read-out: EC50 against P. falciparum) it was < 5 nM; in data set [3] (DD2, 48 h), 22 ± 11 nM. For the same compound, the “Fold more potent than chloroquine, Dd2” value in data set [3] is given as 17 fold.

With `COC1=CC(c2ccc[nH]2)=N[C@@]12O[C@H](C)C[C@H]1CCCCCCCc3[nH]c(cc3C=O)[C@@H]12` [compound 8, 12-formyl premarineosin A], the EC50 at 72 h was 6630 ± 836 nM in data set [1] and 7790 ± 1620 nM in data set [4]. Moreover, the “In vitro activity EC50 ± SD P. falciparum 3D7” value in data set [2] (setting [7]) is on record as “sub-micromolar”. Also, the EC50 in data set [2] (setting [8]) was found to be 165 ± 55 nM; in data set [3] (setting [9]) it was 222 ± 53 nM. For the same compound, in data set [3] (setting [9]), the “In vitro activity EC50 ± SD P. falciparum Dd2” value is on record as “sub-micromolar”.

With `C[C@H]1[C@H](OC(=O)CCC(=O)O)O[C@@H]2O[C@@]3(C)CC[C@H]4[C@H](C)CC[C@@H]1[C@@]24OO3` [Artesunate, reference compound], the results for the concentration giving a half-maximal response (EC50) in data set [2] (setting [8]) and in data set [3] (setting [9]) were 24 ± 6 nM and 8 ± 2 nM, respectively.

Regarding `COC1=CC(c2ccc[nH]2)=N[C@@]12O[C@H](C)C[C@H]1CCCCCCCc3[nH]c(cc3CO)[C@@H]12` [compound 10, 12-hydroxymethyl-premarineosin A], the EC50 at 72 h in data set [1] stood at 19700 ± 1220 nM; in data set [4] it was 18400 ± 6700 nM. Further, the concentration giving a half-maximal response (EC50) in data set [2] (setting [8]) stood at 1230 ± 530 nM; in data set [3] (setting [9]), 704 ± 304 nM.

Take `CCN(CC)CCCC(C)Nc1ccnc2cc(Cl)ccc12` (stereo not drawn) [Chloroquine, reference compound]: the EC50 in data set [2] (setting [5]) stood at 41 ± 3 nM; in data set [3] (DD2, 48 h) it was 382 ± 22 nM.

`COC1=CC(c2ccc[nH]2)=N[C@@]12O[C@H](C)C[C@H]1CCCCCCCc3[nH]c(cc3Cc3cc4[nH]c3CCCCCCC[C@@H]3C[C@@H](C)O[C@@]5(N=C(c6ccc[nH]6)C=C5OC)[C@@H]43)[C@@H]12` [compound 5, Methylene-bridged premarineosin A]: the EC50 at 72 h in data set [1] was found to be 1160 ± 94 nM; in data set [4] it was 8310 ± 1460 nM. Also, the values for the EC50 in data set [2] (setting [8]) and in data set [3] (setting [9]) were 1390 ± 265 nM and 548 ± 76 nM, respectively.

As for `COC1=CC(c2ccc[nH]2)=N[C@@]12O[C@H](C)C[C@H]1CCCCCCCc3ccc([nH]3)[C@@H]12` [compound 3, (−)-premarineosin A], the EC50 at 72 h in data set [1] was 1060 ± 336 nM; in data set [4], 1470 ± 427 nM. Besides, the “Fold more potent than artesunate, 3D7” value in data set [2] (3D7, versus artesunate) stood at 6 fold. Further, in data set [2] (3D7, versus chloroquine), the “Fold more potent than chloroquine, 3D7” value is on record as “over 10 fold”. The EC50 in data set [2] (setting [8]) came out at 4 ± 0.1 nM; in data set [3] (setting [9]), 1 ± 0.7 nM. For the same compound, the “Fold more potent than artesunate, Dd2” value in data set [3] (Dd2, versus artesunate) came out at 8 fold. For the same compound, in data set [3], the “Fold more potent than chloroquine, Dd2” value is listed as > 350 fold. For the same compound, the “Antimalarial activity in vitro” value with Plasmodium was “single-digit nanomolar”.

As to `COC1=CC(c2ccc[nH]2)=N[C@@]12O[C@H](C)C[C@H]1CCCCCCCc3[nH]c(cc3C(C)(C)c3cc4[nH]c3CCCCCCC[C@@H]3C[C@@H](C)O[C@@]5(N=C(c6ccc[nH]6)C=C5OC)[C@@H]43)[C@@H]12` [compound 4, gem-dimethyl-bridged premarineosin A], the EC50 at 72 h came to 2260 ± 777 nM in data set [1] and 8290 ± 1660 nM in data set [4]. For the same compound, the half-maximal effective concentration (EC50) in data set [2] (setting [5]) was determined as 1890 ± 243 nM; in data set [3] (DD2, 48 h), 1240 ± 168 nM.

Take `COC1=CC(c2ccc[nH]2)=N[C@@]12O[C@H](C)C[C@H]1CCCCCCCc3[nH]c(cc3C(C)=O)[C@@H]12` [compound 9, 12-acetyl premarineosin A]: the EC50 at 72 h in data set [1] (setting [6]) turned out to be 3670 ± 1010 nM; in data set [4] (HEK293 embryonic kidney cells), 6590 ± 3020 nM. In addition, in data set [2] (setting [7]), the “In vitro activity EC50 ± SD P. falciparum 3D7” value was “sub-micromolar”. The EC50 in data set [2] (setting [8]) is 178 ± 25 nM; in data set [3] (setting [9]), 180 ± 14 nM. In addition, the “In vitro activity EC50 ± SD P. falciparum Dd2” value in data set [3] (setting [9]) was “sub-micromolar”.

Take `COC1=CC(c2ccc[nH]2)=N[C@@]12O[C@H](C)C[C@H]1CCCCCCCc3[nH]c(cc3C(C)(c3cc4[nH]c3CCCCCCC[C@@H]3C[C@@H](C)O[C@@]5(N=C(c6ccc[nH]6)C=C5OC)[C@@H]43)C(F)(F)F)[C@@H]12` [compound 6, Trifluoromethyl-bridged premarineosin A]: the EC50 at 72 h came to 6510 ± 2740 nM in data set [1] (setting [6]) and 11000 ± 2150 nM in data set [4] (HEK293 embryonic kidney cells). Further, the EC50 in data set [2] (setting [8]) amounted to 5070 ± 1000 nM; in data set [3] (setting [9]), 2320 ± 448 nM.

For orientation: EC50 means the concentration giving half of the maximal effect.
